Reference: patent US12576044B2, “Treatment of Alzheimer's disease” (priority 2015, dated 2026)
Like-named read-outs stand apart in the source and are kept apart here.

What was measured:
beta-amyloid fibrils = conditions: cited from earlier work
[1] = tested on: superactivated platelets (SAPs); test: In vitro synergy analysis: SAP formation with and without R, Q, C combinations, flow cytometry, Combination Index (Chou-Talalay); type: cell-based, human
Protocol: The “effective amount” or “therapeutically effective amount” also may be determined by using methods known in the art such as the in vitro flow cytometry assay to evaluate the effectiveness of multiple RQC combinations on platelet activation. All possible combinations of pre-defined “low”, “medium”, and “high” doses of R, Q, and C, respectively, are tested to determine the optimal dose combination. […] A venipuncture sample of 10 mL of blood is obtained from each patient. Of the 10 mL, a 3 mL aliquot of blood is added to a tube containing 0.5 mL of acid-citrate-dextrose solution (38 mM citric acid, 75 mM sodium citrate, 135 mM glucose) to prevent clotting. […] The PRP is transferred to a new tube, leaving about 0.5 mL above the buffy coat layer. […] Platelets are then treated with biotinylated fibrinogen and stained with the following fluorophores: APC-streptavidin (APC-SA), FITC-PAC1, and PE-anti-CD41. PE-anti-CD41 recognizes the platelet-specific, transmembrane protein CD41. FITC-PAC1 identifies activated platelets by recognizing […] which increases its expression at the surface upon activation. APC-SA recognizes superactivated platelets that more readily bind the biotinylated fibrinogen to their surface. Each sample is analyzed by a Beckman Coulter CyAn flow cytometer (Beckman Coulter, Fullerton, CA). Results are analyzed by the Summit program (Beckman Coulter). […] Thus, abnormally high SAP levels are indicative of microvascular disease. […] To evaluate synergistic drug effects, the Combination Index (CI) theorem derived by Chou-Talalay was calculated for each combination product of R, Q, and C. The CI is useful in quantifying levels of synergism and antagonism. The theorem is based on the median-effect equation to provide a common link between a single entity and multiple entities. […] Baseline differences in untreated SAP levels can be adjusted for by evaluating the proportion of total platelets that are sensitive or resistant to treatment (Table 16). This technique adjusts for overall differences in SAP levels between various disease types. […] In AD subjects (n=9), the total number of platelets sensitive to RQC was higher than in healthy controls (n=20). […] The number of sensitive platelets was higher in AD subjects with higher SAP levels while the number of resistant platelets remained largely equivalent.

[2] = molecular target: T1, monomeric beta-amyloid 1-42 (Homo sapiens, UniProt P05067); test: Thioflavin-T (ThT) assay, aggregate-prevention activity; type: biochemical; conditions: for aggregate-prevention activity: curcumin 0.1, 1.0 or 10 μM, resveratrol 10 μM, quercetin 10 μM, 60 minutes; for aggregate-prevention compared with positive control phenol red (PhR): curcumin at 1 μM, resveratrol at 10 μM
T1 construct: 5 ng monomeric beta-amyloid (1-42) (Anaspec, Fremont, CA); purchased Anaspec, Fremont, CA
T1 sequence (P05067 672-713 limits assumed): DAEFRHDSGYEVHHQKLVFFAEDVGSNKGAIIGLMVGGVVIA
From the text: (§1) (A) De-aggregation activity of curcumin (C). […] (B) Aggregate-prevention activity of resveratrol (R), quercetin (Q), and curcumin (C).
(§2) The formation of beta-amyloid plaques in the brain is a major hallmark of Alzheimer's disease and is widely considered to be a key initial step in the disease progression. The aim of clinical trials for Alzheimer's disease has historically been to deaggregate or prevent the aggregation of beta-amyloid. Plaques are formed by aggregation of soluble monomeric beta-amyloid into insoluble oligomers, protofibrils, fibrils, and plaques. […] The most common method to evaluate beta-amyloid aggregation is the thioflavin-T (ThT) assay. ThT is a fluorescent probe that binds to beta-amyloid fibrils with specificity and is measurable at 482 nm when excited at 450 nm.
(§3) Curcumin (C) was evaluated at 0.1, 1.0, and 10 μM.

beta-amyloid oligomers = conditions: cited from earlier work
[3] = molecular target: beta-amyloid (1-42) oligomers (Homo sapiens, UniProt P05067); test: Thioflavin-T (ThT) assay, de-aggregation of pre-aggregated beta-amyloid; type: biochemical; conditions: for reduced aggregation of pre-aggregated beta-amyloid (1-42): over 8 days, 37° C.; for de-aggregation activity (words): 0.1, 1.0, 10 μM, 2 hours, 3 days, 8 days
beta-amyloid (1-42) oligomers, sequence (P05067 672-713 limits assumed): as above
From the text: as §1, §2, §3

[4] = tested on: superactivated platelets (SAPs); test: SAP inhibition by combinatorial drug treatment (flow cytometry of platelet rich plasma activated with thrombin and convulxin); type: cell-based, human; conditions: 10 μM, 30 minutes at 37° C., normalized relative to Control
Protocol: A venipuncture sample of 10 mL of blood is obtained from each patient. Of the 10 mL, a 3 mL aliquot of blood is added to a tube containing 0.5 mL of acid-citrate-dextrose solution (38 mM citric acid, 75 mM sodium citrate, 135 mM glucose) to prevent clotting. […] After centrifuging at 1100 rpm for 10 minutes at room temperature, platelet rich plasma (PRP), which is the upper layer, is removed. The PRP is transferred to a new tube, leaving about 0.5 mL above the buffy coat layer. The PRP-containing tube is incubated with 10 μL of thrombin and convulxin, two agonists that activate the platelets, for five minutes. Platelets are then treated with biotinylated fibrinogen and stained with the following fluorophores: APC-streptavidin (APC-SA), FITC-PAC1, and PE-anti-CD41. PE-anti-CD41 recognizes the platelet-specific, transmembrane protein CD41. FITC-PAC1 identifies activated platelets by recognizing […] which increases its expression at the surface upon activation. APC-SA recognizes superactivated platelets that more readily bind the biotinylated fibrinogen to their surface.
All fluorophores are excited at 488 nm by argon laser of the flow cytometer. Their emission spectra are well separated, thereby allowing simultaneous, multi-color immunofluorescence measurements.
Each sample is analyzed by a Beckman Coulter CyAn flow cytometer (Beckman Coulter, Fullerton, CA). Results are analyzed by the Summit program (Beckman Coulter). Data analysis is conducted for SAPs after flow cytometry using the Summit program to determine the relative percentages of each of these groups per sample. The SAPs are expressed as a percentage of the total number of events in the sample.
Isolation and flow cytometry of SAPs was performed according to the procedure described in Example 1, above.
Aliquots of platelet rich plasma (PRP) were incubated with aqueous saline solutions of resveratrol only, quercetin only, […], and with an admixture of resveratrol, quercetin and curcumin for a time period of 30 minutes at 37° C. Thereafter the obtained PRP samples were irradiated by an argon laser at […]. Multi-color immunofluorescence was noted, and analyzed as described in Example 1, above.

COc1cc(/C=C/C(=O)CC(=O)/C=C/c2ccc(O)c(OC)c2)ccc1O [Curcumin, (1E,6E)-1,7-bis(4-Hydroxy-3-methoxyphenyl)-1,6-heptadiene-3,5-dione]
IC50 (beta-amyloid fibrils): 1000 nM
% Change ([1]; C 0.01 μM, AD patient): −11%
SAP % ([1]; C 0.01 μM, AD patient): 32.5%
% Change ([1]; C 0.1 μM, AD patient): −18%
SAP % ([1]; C 0.1 μM, AD patient): 30.0%
% Change ([1]; C 1 μM, AD patient): −37%
SAP % ([1]; C 1 μM, AD patient): 23.2%
% Change ([1]; control subject, C 0.01 μM): −2%
SAP % ([1]; control subject, C 0.01 μM): 36.6%
% Change ([1]; control subject, C 0.1 μM): −7%
SAP % ([1]; control subject, C 0.1 μM): 34.6%
% Change ([1]; control subject, C 1 μM): −12%
SAP % ([1]; control subject, C 1 μM): 32.9%
aggregate-prevention activity [2]: inhibited the formation of new beta-amyloid aggregates
aggregate-prevention compared with positive control phenol red (PhR) [2]: approximately as effective as the positive control phenol red
IC50 (beta-amyloid oligomers): 800 nM
reduced aggregation of pre-aggregated beta-amyloid (1-42) ([3]; 0.1 μM): about 18.6%
reduced aggregation of pre-aggregated beta-amyloid (1-42) ([3]; 1.0 μM): ~51.8%
reduced aggregation of pre-aggregated beta-amyloid (1-42) ([3]; 10 μM): ~64.7%
de-aggregation activity (words) [3]: de-aggregated beta-amyloid oligomers in a dose-dependent manner at all time points
de-aggregation activity (words) ([3]; listed as curcumin): dose-dependently de-aggregated existing beta-amyloid oligomers

O=c1c(O)c(-c2ccc(O)c(O)c2)oc2cc(O)cc(O)c12 [Quercetin, 3,3′,4′5,7-pentahydroxy-2-phenylchromen-4-one]
Half-life (in vivo; cited from earlier work): 3 to 17 h
Bioavailability (oral, estimation; cited from earlier work): 0.2-0.3%
Bioavailability (oral; estimation; cited from earlier work): 0.2-0.3%
% Change ([1]; Q 1 μM, AD patient): −7%
SAP % ([1]; Q 1 μM, AD patient): 34.3%
% Change ([1]; Q 5 μM, AD patient): −27%
SAP % ([1]; Q 5 μM, AD patient): 26.7%
% Change ([1]; Q 10 μM, AD patient): −44%
SAP % ([1]; Q 10 μM, AD patient): 20.6%
% Change ([1]; control subject, Q 1 μM): −8%
SAP % ([1]; control subject, Q 1 μM): 34.2%
% Change ([1]; control subject, Q 5 μM): −13%
SAP % ([1]; control subject, Q 5 μM): 32.5%
% Change ([1]; control subject, Q 10 μM): −23%
SAP % ([1]; control subject, Q 10 μM): 28.6%
aggregate-prevention activity [2]: inhibited the formation of new beta-amyloid aggregates
% Reduction in SAPs [4]: 77.8%
% SAPs [4]: 22.2%

Oc1ccc(/C=C/c2cc(O)cc(O)c2)cc1 [Resveratrol, 3,5,4′-trihydroxy-trans-stilbene]
% Change ([1]; R 1 μM, AD patient): −9%
SAP % ([1]; R 1 μM, AD patient): 33.6%
% Change ([1]; R 5 μM, AD patient): −17%
SAP % ([1]; R 5 μM, AD patient): 30.5%
% Change ([1]; R 10 μM, AD patient): −19%
SAP % ([1]; R 10 μM, AD patient): 29.9%
% Change ([1]; control subject, R 1 μM): −9%
SAP % ([1]; control subject, R 1 μM): 33.9%
% Change ([1]; control subject, R 5 μM): −24%
SAP % ([1]; control subject, R 5 μM): 28.2%
% Change ([1]; control subject, R 10 μM): −29%
SAP % ([1]; control subject, R 10 μM): 26.3%
aggregate-prevention activity [2]: inhibited the formation of new beta-amyloid aggregates
aggregate-prevention compared with positive control phenol red (PhR) [2]: approximately as effective as the positive control phenol red
% Reduction in SAPs [4]: 46.6%
% SAPs [4]: 53.4%
